#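 Values below derive from 48-hour exposures of cells grown in 96-well plates, with endpoints linearly interpolated between the two concentrations bracketing the appropriate inhibition level. At the GI50, growth is halved.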 Activity calls are given as the source filed them. Rule as the data show it: active = GI50 up to about 1.1 µM and inactive = higher.
# Tests used:
# Test in all cases: growth of human tumour cells (NCI), 48 h
# [1] = tested on: NCI-H522
# [2] = tested on: COLO 205
# [3] = tested on: HCC 2998
# [4] = tested on: SK-OV-3
# [5] = tested on: MCF7
# [6] = tested on: A549
# [7] = tested on: SN12C
# [8] = tested on: SW-620
# [9] = tested on: MDA-MB-435
# [10] = tested on: SNB-19
# [11] = tested on: SF-295
# [12] = tested on: CAKI-1
# [13] = tested on: LOX IMVI
# [14] = tested on: DU-145
# [15] = tested on: UACC-257
# [16] = tested on: NCI-H226
# [17] = tested on: EKVX
# [18] = tested on: 786-0
# [19] = tested on: OVCAR-5
# [20] = tested on: M14
Structure (SMILES),GI50 [1],GI50 [2],GI50 [3],GI50 [4],GI50 [5],GI50 [6],GI50 [7],GI50 [8],GI50 [9],GI50 [10],GI50 [11],GI50 [12],GI50 [13],GI50 [14],GI50 [15],GI50 [16],GI50 [17],GI50 [18],GI50 [19],GI50 [20]
CC(=O)OC(C)c1cc2c(s1)C(=O)c1ccsc1C2=O (configuration not stated),0.149 µM (active),0.776 µM (active),0.451 µM (active),2.07 µM (inactive),0.0513 µM (active),1.37 µM (inactive),0.156 µM (active),0.324 µM (active),0.0168 µM (active),0.166 µM (active),0.113 µM (active),0.895 µM (active),0.0117 µM (active),0.118 µM (active),0.028 µM (active),1.61 µM (inactive),0.773 µM (active),0.286 µM (active),0.458 µM (active),0.129 µM (active)
S=c1ssc2c3ssc(=S)c3n(Cc3ccccc3)c12,83.2 µM (inactive),> 100 µM (inactive),> 100 µM (inactive),> 100 µM (inactive),81.3 µM (inactive),> 100 µM (inactive),> 100 µM (inactive),> 100 µM (inactive),> 100 µM (inactive),> 100 µM (inactive),> 100 µM (inactive),> 100 µM (inactive),43.2 µM (inactive),54 µM (inactive),> 100 µM (inactive),> 100 µM (inactive),69.7 µM (inactive),37.3 µM (inactive),> 100 µM (inactive),> 100 µM (inactive)
O=[N+]([O-])C(/C(Cl)=C(\Cl)Br)=C(/Cl)SCc1ccccc1,1.89 µM (inactive),1.98 µM (inactive),11.2 µM (inactive),19.6 µM (inactive),2.95 µM (inactive),16.3 µM (inactive),3.31 µM (inactive),2.03 µM (inactive),1.87 µM (inactive),17.8 µM (inactive),16.9 µM (inactive),1.8 µM (inactive),1.86 µM (inactive),13 µM (inactive),6.21 µM (inactive),14.4 µM (inactive),6.67 µM (inactive),2.08 µM (inactive),12.5 µM (inactive),2.77 µM (inactive)
O=c1[nH]c(=O)n(C2C(CO)OC(CO)C2O)cc1F (configuration not stated),> 100 µM (inactive),> 100 µM (inactive),> 100 µM (inactive),> 100 µM (inactive),> 100 µM (inactive),> 100 µM (inactive),> 100 µM (inactive),> 100 µM (inactive),> 100 µM (inactive),> 100 µM (inactive),> 100 µM (inactive),> 100 µM (inactive),> 100 µM (inactive),> 100 µM (inactive),> 100 µM (inactive),> 100 µM (inactive),> 100 µM (inactive),> 100 µM (inactive),> 100 µM (inactive),> 100 µM (inactive)
CCCCCCCCCCOC1C(C(O)CNCCCN(C)C)OC2OC3(CCCCC3)OC21 (configuration not stated),1.82 µM (inactive),2 µM (inactive),2.57 µM (inactive),3.65 µM (inactive),2.07 µM (inactive),3.32 µM (inactive),2.33 µM (inactive),1.74 µM (inactive),2.03 µM (inactive),1.75 µM (inactive),1.86 µM (inactive),1.75 µM (inactive),1.09 µM (active),3.35 µM (inactive),4.05 µM (inactive),18.5 µM (inactive),3.71 µM (inactive),1.9 µM (inactive),1.72 µM (inactive),2 µM (inactive)
COc1ccc2o/c(=N\c3ccc(F)cc3)c(C(N)=O)cc2c1,28.9 µM (inactive),> 100 µM (inactive),> 100 µM (inactive),17 µM (inactive),56.8 µM (inactive),64.3 µM (inactive),42 µM (inactive),> 100 µM (inactive),> 100 µM (inactive),38.5 µM (inactive),33.7 µM (inactive),45.6 µM (inactive),> 100 µM (inactive),> 100 µM (inactive),> 100 µM (inactive),36.6 µM (inactive),> 100 µM (inactive),10.5 µM (inactive),> 100 µM (inactive),> 100 µM (inactive)
NC(=O)NC(=O)Nc1ccc(Br)cc1,> 25.9 µM (inactive),11.3 µM (inactive),> 21.9 µM (inactive),> 100 µM (inactive),5.45 µM (inactive),> 16.6 µM (inactive),> 67.5 µM (inactive),> 11.5 µM (inactive),9.57 µM (inactive),> 11.9 µM (inactive),14.7 µM (inactive),> 9.38 µM (inactive),8.45 µM (inactive),> 100 µM (inactive),> 27.1 µM (inactive),21.5 µM (inactive),14.7 µM (inactive),20.5 µM (inactive),> 21.1 µM (inactive),18.5 µM (inactive)
O=C(CCCC1Cc2ccccc2C1=O)c1ccccc1 (configuration not stated),52.7 µM (inactive),93.8 µM (inactive),> 100 µM (inactive),> 100 µM (inactive),31.2 µM (inactive),50 µM (inactive),54.7 µM (inactive),> 100 µM (inactive),56.1 µM (inactive),89.9 µM (inactive),47.5 µM (inactive),> 100 µM (inactive),34.8 µM (inactive),> 100 µM (inactive),46.2 µM (inactive),70.1 µM (inactive),65.2 µM (inactive),> 100 µM (inactive),> 100 µM (inactive),99.8 µM (inactive)
CCOC(=O)c1cc([N+](=O)[O-])cc([N+](=O)[O-])c1Sc1[nH]cnc2ncnc1-2,1.55 µM (inactive),2.17 µM (inactive),11.9 µM (inactive),11 µM (inactive),1.61 µM (inactive),14.3 µM (inactive),2.21 µM (inactive),2.42 µM (inactive),1.6 µM (inactive),19.5 µM (inactive),7.29 µM (inactive),1.85 µM (inactive),0.454 µM (active),1.31 µM (inactive),6.21 µM (inactive),24.1 µM (inactive),5.08 µM (inactive),0.824 µM (active),9.71 µM (inactive),0.869 µM (active)
CCOC(=O)N1c2ccccc2S(=O)(=O)c2ccccc21,> 100 µM (inactive),> 100 µM (inactive),> 100 µM (inactive),> 100 µM (inactive),> 100 µM (inactive),> 100 µM (inactive),> 100 µM (inactive),> 100 µM (inactive),> 100 µM (inactive),> 100 µM (inactive),> 100 µM (inactive),> 100 µM (inactive),> 100 µM (inactive),> 100 µM (inactive),> 100 µM (inactive),> 100 µM (inactive),> 100 µM (inactive),> 100 µM (inactive),> 100 µM (inactive),> 100 µM (inactive)
Cc1cc(NS(=O)(=O)c2ccc(NC(=O)c3ccc4nc5ccccc5c(Nc5ccc(S(N)(=O)=O)cc5)c4c3)cc2)no1,17.8 µM (inactive),20.6 µM (inactive),38.9 µM (inactive),> 100 µM (inactive),19.9 µM (inactive),24.6 µM (inactive),27.2 µM (inactive),28.1 µM (inactive),21.4 µM (inactive),58.2 µM (inactive),26.6 µM (inactive),38.1 µM (inactive),13.6 µM (inactive),48.3 µM (inactive),22 µM (inactive),> 100 µM (inactive),24.7 µM (inactive),17.1 µM (inactive),27 µM (inactive),30 µM (inactive)
CSc1nc(NC2CCCC2)c2cc[nH]c2n1,66.8 µM (inactive),48.4 µM (inactive),> 100 µM (inactive),> 100 µM (inactive),57.3 µM (inactive),50.6 µM (inactive),> 100 µM (inactive),> 100 µM (inactive),59.2 µM (inactive),66.7 µM (inactive),34.8 µM (inactive),> 100 µM (inactive),37.6 µM (inactive),> 100 µM (inactive),55.5 µM (inactive),87.5 µM (inactive),31.2 µM (inactive),95.1 µM (inactive),–,65 µM (inactive)
CSc1c(C#N)c2n(c3ccccc3[n+]2C)c2ncccc12,19.5 µM (inactive),13.8 µM (inactive),30.1 µM (inactive),36.1 µM (inactive),15 µM (inactive),12.5 µM (inactive),21.2 µM (inactive),20.2 µM (inactive),32 µM (inactive),32.6 µM (inactive),18.9 µM (inactive),21 µM (inactive),14.4 µM (inactive),13.9 µM (inactive),–,16.2 µM (inactive),21.7 µM (inactive),17.7 µM (inactive),23.2 µM (inactive),21.2 µM (inactive)
CN1C(=O)CC2CCCN2C1=O (configuration not stated),> 100 µM (inactive),> 100 µM (inactive),> 100 µM (inactive),> 100 µM (inactive),> 100 µM (inactive),> 100 µM (inactive),–,> 100 µM (inactive),> 100 µM (inactive),> 100 µM (inactive),> 100 µM (inactive),> 100 µM (inactive),> 100 µM (inactive),> 100 µM (inactive),> 100 µM (inactive),> 100 µM (inactive),> 100 µM (inactive),> 100 µM (inactive),> 100 µM (inactive),> 100 µM (inactive)

# From ChEMBL document CHEMBL1201862, “PubChem BioAssay data set” (2004)
